Assays:
[1] = target: mGAT1 (Mus musculus (Mouse), UniProt P31648); assay: [3H]GABA uptake inhibition, mGAT1 in HEK293 cells; assay type: cell-based; conditions: GABA reuptake
Protocol: (§1) Exemplary compounds according to the invention were screened at the Ludwig-Maximilian University of Munich to determine the inhibitory ability towards four mouse GAT transporters (mGAT1-mGAT4). […] The biological material was stably transfected human embryonic kidney HEK293 cells, expressing genes to the appropriate transporters. The generated radioactivity was measured with a liquid scintillation counter. […] These determinations were made according to the procedure described in detail in A. Kragler, G. Höfner, K. T. Wanner, Novel parent structures for inhibitors of the murine GABA transporters mGAT3 and mGAT4, Eur. J. Pharmacol. 519 (2005) 43-47.

[2] = target: mGAT3 (Mus musculus (Mouse), UniProt P31649); assay: [3H]GABA uptake inhibition, mGAT3 in HEK293 cells; assay type: cell-based; conditions: GABA reuptake
Protocol: as §1

[3] = test system: Albino Swiss CD-1 mice; assay: Rotarod test; assay type: in vivo
Protocol: (§2) The research was conducted at the Department of Pharmacodynamics, Faculty of Pharmacy, Jagiellonian University in Krakow. All procedures were approved by the 1st and 2nd Local Ethics Committee for Animal Experiments in Krakow (consent no. 53/2017 and 250/2019) and were performed in accordance with the applicable European Union regulation (86/609/EEC). Males of two different strains of domestic mice (Mus musculus) were used in the study: Albino Swiss CD-1 (body weight approx. 20-24 g, age approx. 6 weeks) and C57BL/6J mice (body weight approx. 18-22 g, age approx. 6 weeks). The CD-1 strain was used for the passive avoidance, spontaneous mobility and rotating rod tests, while the C57BL/6J mice were used for the Morris water maze and the Barnes' maze. The animals were kept in standard, appropriately sized cages, divided into groups with a maximum of 10 animals. The animals in the study groups in the learning phase were intraperitoneally administered the test compound 1 h before the start of the experiments (doses in the preliminary test, i.e. in the passive avoidance test: 10, 30 and 60 mg/kg), and 30 minutes later, 1 mg/kg of scopolamine subcutaneously. Two control groups were used in the tests to assess the procognitive activity of JT-3—one of them received saline and the other saline and scopolamine.
Before the experiment, the mice were adequately trained (3 days, rod revolving at 18 rpm). The device consists of a rod set in a horizontal position. It is 75 cm long, divided into 4 tracks, and is set in rotation by an electric motor. This metal rod is placed 50 cm above the table to discourage mice from jumping off it. On the day of the actual test, 24 h after the animals' last training, the mice were placed sequentially on the bar for 60 s (for each rotation speed). The rod rotation speed was set to 6, 18, and 24 rpm, respectively. The inability of the mice to stay on the rod for 60 s was considered a disorder of motor coordination.

[4] = target: human plasma butyrylcholinesterase (hBuChE) (Homo sapiens (Human), UniProt P06276); assay: Ellman's test, inhibition of human plasma butyrylcholinesterase; assay type: biochemical
Outline: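 Modified Ellman assay: compound preincubated 5 min with enzyme and DTNB in 0.1 M phosphate buffer pH 8.0 at 25° C (eqBuChE) or 36° C (hBuChE), then butyrylthiocholine added; absorbance change at 412 nm read after 5 min. Screening at 10 μM (eqBuChE) or 1 μM (hBuChE); IC50 by non-linear regression, triplicates.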

[5] = test system: Albino Swiss CD-1 mice; assay: Spontaneous motor activity test; assay type: in vivo
Protocol: as §2, with “The animals in the study groups in the learning phase were intraperitoneally administered the test compound 1 h before the start of the experiments (doses in the preliminary test, i.e. in the passive avoidance test: 10, 30 and 60 mg/kg), and 30 minutes later, 1 mg/kg of scopolamine subcutaneously. Two control groups were used in the tests to assess the procognitive activity of JT-3—one of them received saline and the other saline and scopolamine.” left out
In this test, the effect of compound JT-3 on the spontaneous motor activity of mice was investigated. […] The apparatus recorded the number of horizontal and vertical movements during the 60-minute test. The mice were put into the actometer, the measurement lasted for 1 hour, during which the camera counted the number of times the light beams were crossed, i.e. motor activity. […]

Chain of mGAT3 (P31649 whole entry): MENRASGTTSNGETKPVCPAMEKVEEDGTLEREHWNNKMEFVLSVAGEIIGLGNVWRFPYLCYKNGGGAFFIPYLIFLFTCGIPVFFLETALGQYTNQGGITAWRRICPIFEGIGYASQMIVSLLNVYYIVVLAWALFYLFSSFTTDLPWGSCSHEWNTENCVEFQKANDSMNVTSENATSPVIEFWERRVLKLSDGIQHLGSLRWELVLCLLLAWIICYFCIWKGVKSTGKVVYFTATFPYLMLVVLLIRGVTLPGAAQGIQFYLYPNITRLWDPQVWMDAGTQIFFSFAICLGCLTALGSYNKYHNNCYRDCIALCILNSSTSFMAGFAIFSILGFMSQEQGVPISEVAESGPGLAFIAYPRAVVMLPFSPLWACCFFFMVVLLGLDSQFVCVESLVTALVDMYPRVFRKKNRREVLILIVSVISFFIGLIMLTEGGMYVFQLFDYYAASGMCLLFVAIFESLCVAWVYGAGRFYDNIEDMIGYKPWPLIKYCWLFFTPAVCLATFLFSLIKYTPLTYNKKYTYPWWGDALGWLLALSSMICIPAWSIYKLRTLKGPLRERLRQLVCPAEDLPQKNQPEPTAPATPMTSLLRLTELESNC
Chain of human plasma butyrylcholinesterase (hBuChE) (P06276 29-602): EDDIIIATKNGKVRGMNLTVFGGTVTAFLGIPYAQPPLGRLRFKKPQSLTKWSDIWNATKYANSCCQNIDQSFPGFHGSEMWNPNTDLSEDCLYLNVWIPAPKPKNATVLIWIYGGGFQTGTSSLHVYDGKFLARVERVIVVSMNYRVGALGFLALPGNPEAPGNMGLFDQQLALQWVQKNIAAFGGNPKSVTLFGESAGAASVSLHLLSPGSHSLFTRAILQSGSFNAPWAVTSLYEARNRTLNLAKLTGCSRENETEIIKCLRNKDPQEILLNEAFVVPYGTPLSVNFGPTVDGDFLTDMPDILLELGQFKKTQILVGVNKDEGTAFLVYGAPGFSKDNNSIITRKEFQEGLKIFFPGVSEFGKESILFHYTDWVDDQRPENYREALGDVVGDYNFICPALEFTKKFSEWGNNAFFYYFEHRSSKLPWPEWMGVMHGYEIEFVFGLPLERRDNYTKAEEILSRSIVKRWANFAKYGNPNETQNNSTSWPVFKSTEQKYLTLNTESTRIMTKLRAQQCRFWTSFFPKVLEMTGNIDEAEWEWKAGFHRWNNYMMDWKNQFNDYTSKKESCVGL

O[C@H](CNCC1CC1)[C@H](Cc1ccccc1)NC1c2ccccc2-c2ccccc21 [JT-3, (2R,3S)-3-((9H-fluoren-9-yl)amino)-1-((cyclopropylmethyl)amino)-4-phenylbutan-2-ol]
pIC50 (+/−SEM) mGAT1 [1]: 4.96 | pIC50 (+/−SEM) mGAT3 [2]: 5.13 +/− 0.04 | influence on motor coordination ([3]; 10 mg/kg): No negative influence | time kept on the bar ([3]; 10 mg/kg and 30 mg/kg, speeds of 6, 18, and 24 rpm, all animals): 60 s | influence on motor coordination ([3]; 30 mg/kg): No negative influence | IC50 [4]: 207 nM | effect on spontaneous motor activity (number of movements in 60 min) ([5]; 10 mg/kg i.p.): Neither of these doses affected the motility of the animals | effect on spontaneous motor activity (number of movements in 60 min) ([5]; 30 mg/kg i.p.): Neither of these doses affected the motility of the animals

— patent US12492163B2, “9H-fluorene derivatives or their pharmaceutically acceptable salts” (priority 2020, dated 2025)
